Measurements from ChEMBL document CHEMBL2074373, “Effect of the Mdr1a P-glycoprotein gene disruption on the tissue distribution of SDZ PSC 833, a multidrug resistance-reversing agent, in mice” (J Pharmacol Exp Ther, 1998).

Target: ATP-dependent translocase ABCB1 (Mus musculus, UniProt P21447)
Experiment: TP_TRANSPORTER: increase in brain concentration in mdr1a(-/-) mouse
Type: functional, organism-based
Conditions: in vivo

Sequence of ATP-dependent translocase ABCB1 (P21447 whole entry): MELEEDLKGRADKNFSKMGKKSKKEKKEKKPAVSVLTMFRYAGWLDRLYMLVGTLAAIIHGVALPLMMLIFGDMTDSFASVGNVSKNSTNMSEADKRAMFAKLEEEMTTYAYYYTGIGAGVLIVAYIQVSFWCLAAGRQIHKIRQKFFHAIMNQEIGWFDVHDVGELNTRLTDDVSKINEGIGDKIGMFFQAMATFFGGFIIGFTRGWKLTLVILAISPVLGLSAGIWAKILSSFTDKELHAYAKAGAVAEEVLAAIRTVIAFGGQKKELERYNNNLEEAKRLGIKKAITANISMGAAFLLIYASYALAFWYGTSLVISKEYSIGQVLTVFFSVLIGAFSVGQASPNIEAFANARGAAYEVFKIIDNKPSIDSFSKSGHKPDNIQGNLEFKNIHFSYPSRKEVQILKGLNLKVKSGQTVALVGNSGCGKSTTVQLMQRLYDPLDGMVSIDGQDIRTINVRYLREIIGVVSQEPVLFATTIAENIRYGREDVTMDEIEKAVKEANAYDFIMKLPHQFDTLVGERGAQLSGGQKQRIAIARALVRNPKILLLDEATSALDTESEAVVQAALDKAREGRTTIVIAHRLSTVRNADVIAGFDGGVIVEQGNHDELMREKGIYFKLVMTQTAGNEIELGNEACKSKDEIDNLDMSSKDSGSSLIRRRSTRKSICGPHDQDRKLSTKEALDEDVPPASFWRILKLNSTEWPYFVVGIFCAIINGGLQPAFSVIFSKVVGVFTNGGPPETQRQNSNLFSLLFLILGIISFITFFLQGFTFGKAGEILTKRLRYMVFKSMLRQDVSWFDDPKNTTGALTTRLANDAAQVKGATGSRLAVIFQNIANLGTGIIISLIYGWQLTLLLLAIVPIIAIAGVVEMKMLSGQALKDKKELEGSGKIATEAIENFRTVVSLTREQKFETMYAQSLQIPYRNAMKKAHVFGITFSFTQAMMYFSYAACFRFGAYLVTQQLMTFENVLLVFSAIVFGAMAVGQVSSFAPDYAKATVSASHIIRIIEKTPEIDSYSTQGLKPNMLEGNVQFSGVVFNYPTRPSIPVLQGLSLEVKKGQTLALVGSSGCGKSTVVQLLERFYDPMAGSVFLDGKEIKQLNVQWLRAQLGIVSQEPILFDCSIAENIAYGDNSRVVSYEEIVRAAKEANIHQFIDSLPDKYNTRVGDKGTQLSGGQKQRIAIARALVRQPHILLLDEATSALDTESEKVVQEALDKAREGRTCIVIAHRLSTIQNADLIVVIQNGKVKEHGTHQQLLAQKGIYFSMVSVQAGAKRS

Activity: substrate [+]
Structure (SMILES): C/C=C/C[C@@H](C)C(=O)[C@H]1C(=O)N[C@@H](C(C)C)C(=O)N(C)CC(=O)N(C)[C@@H](CC(C)C)C(=O)N[C@@H](C(C)C)C(=O)N(C)[C@@H](CC(C)C)C(=O)N[C@@H](C)C(=O)N[C@H](C)C(=O)N(C)[C@@H](CC(C)C)C(=O)N(C)[C@@H](CC(C)C)C(=O)N(C)[C@@H](C(C)C)C(=O)N1C [VALSPODAR]
